# Source: patent US8524716B2, “Macrocyclic indoles as hepatitis C virus inhibitors” (priority 2007, dated 2013)
# Columns and labels:
# [1] = from C=CCCNC(=O)Cn1c(-c2ccc3nc(-c4cc(OC)ccc4-c4ccc(Cl)cc4)ccc3c2)c(C2CCCCC2)c2ccc(C(=O)NCCC=C)cc21; rcm bond; Hoveyda-Grubbs 1st generation catalyst; DCE; 1.32 mM; 80.0 °C
# [2] = from C=CCCNC(=O)c1cc(C)c2c(C3CCCCC3)c(-c3ccc4nc(-c5cc(OC)ccc5-c5ccc(Cl)cc5)ccc4c3)n(C(=O)NCCC=C)c2c1; rcm bond; 15-membered ring; Hoveyda-Grubbs 1st gen (0.42 eq); DCE; 1.32 mM; 80.0 °C
compound,measurement,setting,value
COc1ccc(-c2ccc(Cl)cc2)c(-c2ccc3cc(-c4c(C5CCCCC5)c5ccc6cc5n4CC(=O)NCCC=CCCNC6=O)ccc3n2)c1,"ring closure, yield of all isomers",[1],30%
same,"ring closure, isolated yield",[2],30%
